Patent US20250186496A1, “METHODS AND COMPOSITIONS FOR CONTROLLING T CELL ACTIVATION” (The General Hospital Corporation, priority 2022, published 2025)

Assays:
IL-7 = assay: Cytokine expression and soluble IL-7 in supernatant of CAR T cells cocultured with CD19+ Nalm6; assay type: cell-based
From the text: FIGS. 13A-13C show mbdIL7 is cleaved from the T cell surface in a state-dependent manner.

STAT5 = STAT5 signaling over increasing concentrations of lenalidomide; assay type: cell-based, human; settings: increasing lenalidomide concentration; CAR19 cells with mbdIL7
mbdIL7-Luc = settings: mice
Experimental: The mdbIL7 was tagged with luciferase (mdbTL7-Luc), so mdbTL7 expression could be monitored in vivo. Mice were injected with Jurkat cells that were transduced with mdbIL7-Luc. The Jurkat mdbTL7-Luc cells were allowed to engraft for 25 days and then pomalidomide was administered to the mice (FIG. 14A).

[1] = test system: T cells expressing a CD19 CAR; assay: Expansion/activation of CAR T cells in production with or without exogenous IL-2 (population doublings); assay type: cell-based, human; settings: CAR19 mbdIL7 without exogenous IL-2 vs CAR19 cells induced with IL-2
Experimental: CAR19 T cells and mbdTL7 CAR19 T cells were cultured with and without exogenous IL-2. […] This was shown for two different types of cancer cells, Nalm6 and K562.

Nc1cccc2c1CN(C1CCC(=O)NC1=O)C2=O (stereo not drawn) [lenalidomide]
effect of lenalidomide on IL-7 cleavage without antigen exposure (IL-7; CAR19 mbdIL7 not experiencing antigen exposure): no appreciable effects | control of cleavage of IL-7 from the T cell surface by lenalidomide (IL-7; CAR19 mbdIL7 with antigen exposure): effectively controlled by lenalidomide in a dose-dependent manner | pSTAT5 expression (STAT5): a decrease in pSTAT5 expression

Nc1cccc2c1C(=O)N(C1CCC(=O)NC1=O)C2=O (stereo not drawn) [pomalidomide]
decrease of mdbIL7-luc expression (mbdIL7-Luc; 6 hours after administration of pomalidomide): more than 10 fold | mdbIL7-luc expression (mbdIL7-Luc; by 24 hours after pomalidomide administration): returned to levels similar to pre-administration

B1: mbdIL7: T cell factor: human IL-7, a CD80 hinge and transmembrane domain, and a lenalidomide-responsive zinc finger degron domain (protein)
chain: MLLLVTSLLLCELPHPAFLLIPEQKLISEEDLDCDIEGKDGKQYESVLMVSIDQLLDSMKEIGSNCLNNEFNFFKRHICDANKEGMFLFRAARKLRQFLKMNSTGDFDLHLLKVSEGTTILLNCTGQVKGRKPAALGEAQPTKSLEENKSLKEQKKLNDLCFLKRLLQEIKTCWNKILMGTKEHWNTTKQEHFPDNLLPSWAITLISVNGIFVICCLTYCFAPRCRERRRNERLRRESVRPVGSGSGSGSGGFNVLMVHKRSHTGERPLQCEICGFTCRQKGNLLRHIKLHTGEKPFKCHLCNYACQRRDAL
CAR19 cell doubling time / expansion rate [1]: not significantly affected
